Results published in US20240173302A1, “TREATMENT OF INFLAMMATORY DISEASES” (DIMERIX BIOSCIENCE PTY LTD, priority 2021, published 2024).
Entries after “also recorded” stand apart in the source; their conditions may differ.

Key:
[1] = biological target: T1, ETAR and CCR2 heteromer (Homo sapiens, UniProt P25101+P41597); assay: Receptor-HIT BRET β-arrestin recruitment assay, ETAR/Rluc8+Barr2/Venus+CCR2; type: cell-based; conditions: HEK293FT cells; for agonist-induced β-arrestin recruitment to ETAR (ligand-induced BRET): no antagonist; for hyperactivation of β-arrestin recruitment to ETAR (ligand-induced BRET): both CCL2/MCP-1 and ET-1 present
T1 construct: expressed in transfected cells; host or cells: HEK293FT
Method: HEK293FT cells were seeded in 6-well plates at a density of approximately 700,000 cells/well and maintained at 37° C., 5% CO2 in Complete Media (DMEM containing 0.3 mg/ml glutamine, 100 IU/ml penicillin and 100 μg/ml streptomycin (Thermo Fisher)) supplemented with 10% fetal calf serum (FCS; Bovogen). Transient transfections were carried out 24 h after seeding using FuGene6 (Promega) according to manufacturer instructions. 24 h post-transfection, cells were washed with PBS, detached using 0.05% trypsin/0.53 mM EDTA, resuspended in phenol red free Complete Media containing 5% FCS and added to a poly-L-lysine-coated white 96-well microplate (Greiner Bio-One). 48 h post-transfection, bioluminescence resonance energy transfer (BRET) assays were carried out following pre-incubation of cells with EnduRen™ (Promega) at a final concentration of 30 μM, at 37° ° C., 5% CO2 for 2 h. BRET measurements were taken at 37° C. using the CLARIOstar (BMG Labtech). Filtered light emissions were sequentially measured for 1 s in each of the ‘donor wavelength window’ (410-490 nm) and ‘acceptor wavelength window’ (520-620 nm).
For antagonist assays, cells were pre-incubated in EnduRen for 2 h. The antagonists (10 μM) were added and the assay was read for 30 min. Subsequently, the agonists (CXCL8 10 nM, AngII 100 nM) were added and the measurements continued for another 1 h.
The BRET signal observed between interacting proteins is normalized by subtracting the background BRET ratio. This can be done in one of two ways (see Pfleger et al. (2006) Cell Signal 18:1664-1670; Pfleger et al. (2006) Nat Protoc 1:336-344): 1) the ratio of the 520-550 nm emission over the 460-490 nm emission for a cell sample containing only the donor construct is subtracted from the same ratio for a sample containing the interacting acceptor and donor fusion proteins; 2) the ratio of the 520-550 nm emission over the 460-490 nm emission for a cell sample treated with vehicle is subtracted from the same ratio for a second aliquot of the same cell sample treated with ligand. In the following examples, the second calculation will be used and the signal is described as ‘ligand-induced BRET’.
The Receptor-Heteromer Investigation Technology (Receptor-HIT) is an assay configuration that provides insights into receptor complexes (Ayoub et al. (2015) PLOS One 10(3):e0119803). It is also known as GPCR-HIT when assessing GPCRs. It is an assay configuration whereby one receptor (eg. CCR2) is labelled with one component (eg. Renilla luciferase variant Rluc8) of a proximity-based reporter system (eg. BRET), the complementary component of which (eg. yellow fluorescent protein Venus) is fused to a receptor interacting partner (eg. β-arrestin 2). Treatment with a ligand (eg. AngII) selective for the receptor untagged with respect to the BRET assay (eg. hemagglutinin epitope-tagged AT1R; HA-AT1R) results in modulation of the proximity of the BRET-tagged receptor and the interacting partner, resulting in a change in BRET signal that is indicative of functional interaction between the two receptors.

[2] = test system: CCR2 in the presence of unlabelled ETAR; assay: Receptor-HIT BRET β-arrestin recruitment assay, CCR2/Rluc8+Barr2/Venus+HA-ETAR; type: cell-based, human; conditions: HEK293FT cells

T1 sequence (P25101 21-427): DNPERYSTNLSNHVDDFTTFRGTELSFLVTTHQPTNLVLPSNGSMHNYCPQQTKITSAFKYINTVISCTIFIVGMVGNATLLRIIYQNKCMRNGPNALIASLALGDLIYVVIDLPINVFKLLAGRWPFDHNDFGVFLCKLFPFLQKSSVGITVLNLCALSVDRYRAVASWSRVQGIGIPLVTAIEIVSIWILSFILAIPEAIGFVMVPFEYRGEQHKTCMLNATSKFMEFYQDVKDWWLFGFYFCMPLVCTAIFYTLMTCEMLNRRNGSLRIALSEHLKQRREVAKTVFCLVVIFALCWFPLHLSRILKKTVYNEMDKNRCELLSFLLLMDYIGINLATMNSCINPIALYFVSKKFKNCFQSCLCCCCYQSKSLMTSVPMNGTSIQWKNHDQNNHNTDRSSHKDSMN
T1 sequence (P41597 whole entry): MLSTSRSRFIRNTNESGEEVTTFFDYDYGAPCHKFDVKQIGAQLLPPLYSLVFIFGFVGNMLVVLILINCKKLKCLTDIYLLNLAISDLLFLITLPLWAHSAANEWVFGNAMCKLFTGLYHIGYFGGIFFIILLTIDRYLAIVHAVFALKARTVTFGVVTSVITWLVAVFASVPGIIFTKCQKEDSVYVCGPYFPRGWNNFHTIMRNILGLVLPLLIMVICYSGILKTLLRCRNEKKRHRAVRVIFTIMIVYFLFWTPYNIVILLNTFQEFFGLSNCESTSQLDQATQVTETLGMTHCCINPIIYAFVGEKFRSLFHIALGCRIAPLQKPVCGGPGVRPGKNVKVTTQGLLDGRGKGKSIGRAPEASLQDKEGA

Molecule | agonist-induced β-arrestin recruitment to ETAR (ligand-induced BRET) [1] | agonist-induced β-arrestin recruitment to ETAR (ligand-induced BRET) ([1]; listed as CCL2) | agonist-induced β-arrestin recruitment to ETAR (ligand-induced BRET) ([1]; listed as CCL2/MCP1) | agonist-induced β-arrestin recruitment to CCR2 (ligand-induced BRET) ([2]; no antagonist) | β-arrestin recruitment to ETAR stimulated with ET-1 (ligand-induced BRET) ([1]; ET-1 alone, antagonists 10 μM) | hyperactivation of β-arrestin recruitment to ETAR (ligand-induced BRET) ([1]; antagonists 10 μM) | hyperactivation of β-arrestin recruitment to ETAR (ligand-induced BRET) ([1]; antagonists 10 μM, listed as sparsentan) | increased recruitment of β-arrestin to CCR2 (ligand-induced BRET) ([2]; CCL2/MCP-1 and ET-1 present, antagonists 10 μM)
endothelin-1 [ET-1] | β-arrestin is recruited to ETAR; also recorded: recruit β-arrestin at a low magnitude |  |  |  |  |  |  | 
monocyte chemoattractant protein-1 [CCL2/MCP-1] | β-arrestin is recruited to ETAR | β-arrestin recruitment to ETAR occurs | β-arrestin is recruited to ETAR | β-arrestin is recruited to CCR2 |  |  |  | 
CCCCC1=NC2(CCCC2)C(=O)N1Cc1ccc(-c2ccccc2S(=O)(=O)Nc2noc(C)c2C)c(COCC)c1 [Sparsentan, 2-[4-[(2-butyl-4-oxo-1,3-diazaspiro[4.4]non-1-en-3-yl)methyl]-2-(ethoxymethyl)phenyl]-N-(4,5-dimethyl-1,2-oxazol-3-yl)benzenesulfonamide] |  |  |  |  | inhibits this signalling independent of CCR2 activation | abrogate the hyperactivation when both CCL2/CMP-1 and ET-1 ligands are present but not cease recruitment of β-arrestin to ETAR | abrogated | increased recruitment of β-arrestin is not observed
